Assay results as given in ChEMBL document CHEMBL3137667, “[Drug-induced liver injury; fourteenth updated edition of the bibliographic database of liver injuries and related drugs]” (Gastroenterol Clin Biol, 2004).

Experiments:
[1] = human, serum
[2] = human
[3] = Times to onset, minimal and maximal, observed in the indexed observations. [column 'DELAI' in source]; settings: human
[4] = human; remark: listed apart in the source
[5] = Highest frequency of moderate liver toxicity observed during clinical trials, expressed as a percentage. [column '% BIOL' in source]; settings: human
[6] = human; remark: listed apart in the source
[7] = Highest frequency of acute liver toxicity observed during clinical trials, expressed as a percentage. [column '% AIGUE' in source]; settings: human
[8] = human; remark: listed apart in the source
[9] = human, serum, 4383 h
[10] = human; remark: listed apart in the source
[11] = human; remark: listed apart in the source
[12] = human; remark: listed apart in the source
[13] = human; remark: listed apart in the source
[14] = human, serum; remark: listed apart in the source
[15] = human; remark: listed apart in the source
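Wherever Hepatotoxicity (association with vascular disease) is given: count of indexed literature references reporting vascular liver injury in humans, e.g. peliosis hepatitis, hepatic veno-occlusive disease or Budd-Chiari syndrome.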
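Wherever Hepatotoxicity (benign tumour) is given: value is a count of indexed literature references citing a benign tumour confirmed by histopathology.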
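Wherever Hepatotoxicity (choleostasis) is given: human cholestatic liver injury, shown by histopathology or by peak ALT or AST elevation over alkaline phosphatase ratio below 2, value counts indexed literature reports.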
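Wherever Hepatotoxicity (chronic liver disease) is given: chronic liver injury confirmed by histopathology or persistently raised serum aminotransferase activity beyond 6 months, value given as the count of indexed literature references.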
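Wherever Hepatotoxicity (cirrhosis) is given: value is a count of indexed literature references reporting cirrhosis confirmed by histopathology.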
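Wherever Hepatotoxicity (cytolytic) is given: human cytolytic liver injury, shown by histopathology or by a ratio above 5 of peak ALT or AST elevation to alkaline phosphatase elevation, value counts indexed references.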
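Wherever Hepatotoxicity (granulomatous hepatitis) is given: value is a count of indexed literature references reporting granulomatous liver disease confirmed by histopathology.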
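Wherever Hepatotoxicity (malignant tumour) is given: malignant tumour confirmed by histopathology, value gives the count of indexed literature references reporting it.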
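Wherever Hepatotoxicity (severe hepatitis) is given: human clinical data: severe hepatitis, meaning potentially life-threatening liver failure or clinically observed cases, the value counts how many indexed literature references report it.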
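Wherever Hepatotoxicity (steatosis) is given: steatosis confirmed by histopathology, value is the count of indexed references.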

Row | Structure (SMILES) | Hepatotoxicity (moderate) [1] | Hepatotoxicity (malignant tumour) [2] | Hepatotoxicity (time to onset) [3] | Hepatotoxicity (severe hepatitis) [4] | Hepatotoxicity (moderate) [5] | Hepatotoxicity (choleostasis) [6] | Hepatotoxicity (acute) [7] | Hepatotoxicity (cytolytic) [8] | Hepatotoxicity (chronic liver disease) [9] | Hepatotoxicity (benign tumour) [10] | Hepatotoxicity (granulomatous hepatitis) [11] | Hepatotoxicity (association with vascular disease) [12] | Hepatotoxicity (cirrhosis) [13] | Hepatotoxicity (acute) [14] | Hepatotoxicity (steatosis) [15]
1 | COc1cc(NS(=O)(=O)c2ccc(N)cc2)nc(OC)n1 [SULFADIMETHOXINE] | 0 | 0 | 1 month - 2 months | 0 | 0% | 0 | 0% | 1 | 0 | 0 | 1 | 0 | 0 | 2 | 0
2 | Nc1c2c(nc3ccccc13)CCCC2O (stereo not given) [VELNACRINE] | 8 | 0 | 4 weeks - 3 months | 0 | 35% | 0 | 7.3% | 2 | 0 | 0 | 0 | 0 | 0 | 2 | 0
3 | O=C(COc1ccc(Cl)cc1)N1CCN(Cc2ccc3c(c2)OCO3)CC1 [FIPEXIDE] | 0 | 0 | 15 days - 3 months | 1 | 0% | 0 | 0% | 3 | 0 | 0 | 0 | 0 | 0 | 4 | 0
4 | COc1ccc(CCN(C)CCCC2(c3ccc(OC)c(OC)c3)S(=O)(=O)CCCS2(=O)=O)cc1OC | 2 | 0 | 1 month | 0 | 6.7% | 1 | 0% | 0 | 0 | 0 | 0 | 0 | 0 | 1 | 0
5 | CC1=C(/C=C/C(C)=C/C=C/C(C)=C/C(=O)Nc2ccc(O)cc2)C(C)(C)CCC1 [FENRETINIDE] | 3 | 0 | 1 week | 0 | 12.8% | 0 | 0% | 0 | 0 | 0 | 0 | 0 | 0 | 0 | 0
6 | NC(=O)CCC/N=C(\c1ccc(Cl)cc1)c1cc(F)ccc1O [PROGABIDE] | 6 | 0 | 2 weeks - 6 months | 4 | 30% | 0 | 3.4% | 4 | 0 | 0 | 0 | 0 | 0 | 6 | 0
7 | C=CCC1(CC(C)C)C(=O)NC(=O)NC1=O [BUTALBITAL] | 0 | 0 | 2.5 months | 0 | 0% | 0 | 0% | 1 | 0 | 0 | 0 | 0 | 0 | 1 | 0
8 | S=P(N1CC1)(N1CC1)N1CC1 [THIOTEPA] | 0 | 0 | 2 weeks | 2 | 0% | 1 | 5.3% | 1 | 0 | 0 | 0 | 2 | 0 | 1 | 0
